Here are results for five compounds from patent publication US12370203B2, “Pharmaceutical compositions and methods of making on demand solid dosage formulations” (Eastern Virginia Medical School, priority 2018, dated 2025).

The test system of one data set is HSV. Nature of the data set: Anti-HSV activity of tenofovir prodrugs. It is filed as cell-based.
The next data set has as its system HIV. Nature of the data set: Cervical vaginal (CV) tissue explant HIV infection (p24 production, AUC). The format is cell-based. An excerpt:
FIGS. 1A, 1B and 1C show EVG dose response plots on p24 production.

A short description of data set [1]: EVG concentration in CV tissues. It is filed as in vitro ADME. As for the experimental part:
FIG. 2 is a graph showing EVG concentrations in infected vs. not infected CV tissues. Median concentrations and ranges (min and max) are shown. PA=Protein adjusted. […] Based on the data, it can be extrapolated that EVG tissue concentrations of >1000 ng/g provided 100% HIV prophylaxis. (FIG. 2).

Structures can show the parent of a compound that is named as a salt.

Regarding `Nc1nc2c(ncn2COCCO)c(=O)[nH]1` [acyclovir (ACV), acyclovir], in the data set on HSV, the “activity against HSV” value was “improved activity against HSV”.
In the case of `COc1cc2c(cc1Cc1cccc(Cl)c1F)c(=O)c(C(=O)O)cn2[C@H](CO)C(C)C` [EVG, elvitegravir], the “% protection of mean AUC versus HIV control” value (shortened to “% protection”) in the data set on HIV (Co-exposure, virus and EVG added together, EVG 0.1 μg/ml) turned out to be 97.56%; in the data set with HIV (Co-exposure, virus and EVG added together, EVG 1 μg/ml), 100%; in the data set with HIV (Post-exposure 4 h, EVG 0.1 μg/ml), 86%; in the data set on HIV (Post-exposure 4 h, EVG 1 μg/ml), 99.56%; with HIV (Post-exposure 4 h, EVG 10 μg/ml), 100%; with HIV (Post-exposure 9 h, EVG 0.1 μg/ml), 85.85%. Besides, the “% protection” value in the data set on HIV (Post-exposure 9 h, EVG 1 μg/ml) was found to be 100%; in the data set with HIV (Post-exposure 9 h, EVG 10 μg/ml), 100%; in the data set on HIV (Post-exposure 14 h, EVG 10 μg/ml), 100%; in the data set with HIV (Post-exposure 24 h, EVG 10 μg/ml), 100%; with HIV (Pre-exposure 0 h, EVG 0.1 μg/ml), 34.5%; in the data set with HIV (Pre-exposure 0 h, EVG 1 μg/ml), 99.97%. The “% protection” value in the data set on HIV (Pre-exposure 0 h, EVG 10 μg/ml) worked out at 100%; in the data set with HIV (Pre-exposure 7 h, EVG 0.1 μg/ml), 21.53%; in the data set on HIV (Pre-exposure 7 h, EVG 1 μg/ml) it was 99.1%; in the data set with HIV (Pre-exposure 7 h, EVG 10 μg/ml), 100%; in the data set with HIV (Pre-exposure 24 h, EVG 0.1 μg/ml), 44.8%; in the data set with HIV (Pre-exposure 24 h, EVG 1 μg/ml), 99.51%. In addition, the “% protection” value in the data set on HIV (Pre-exposure 24 h, EVG 10 μg/ml) came to 100%. The “EVG tissue concentration that provided 100% HIV prophylaxis” value in data set [1] (extrapolated from CV tissue data) was above 1000 ng/g. In addition, the “median EVG concentration in CV tissues” value in data set [1] (following 4 h of exposure to 1 μg/ml of EVG) was 1150 ng/g; in data set [1] (following 4 h of exposure to 10 μg/ml of EVG), 13,381 ng/g.
Regarding `CC(C)OC(=O)[C@H](C)N[P@](=O)(CO[C@H](C)Cn1cnc2c(N)ncnc21)Oc1ccccc1` [TAF, tenofovir alafenamide fumarate], in the data set on HSV, the “activity against HSV” value is given as “most potent”.
Take `CC(C)OC(=O)OCOP(=O)(CO[C@H](C)Cn1cnc2c(N)ncnc21)OCOC(=O)OC(C)C` [TDF, tenofovir disoproxil fumarate]: the “activity against HSV” value in the data set with HSV is reported as “improved activity against HSV”.
Still for that read-out and setting: to `C[C@H](Cn1cnc2c(N)ncnc21)OCP(=O)(O)O` [TFV, tenofovir] belongs “improved activity against HSV”.
